Laboratory results: patent US8927009B2 (AbbVie Inc., priority 2009, dated 2015)
Counter-ions that a name gives are not always drawn.

Key:
Type in all cases: physicochemical
[1] = Solubility in lipid solvents and solvent mixtures in ambient conditions; conditions: listed as bis-HCl salt
Description: Solubility of ABT-263 parent (free base, crystalline Form I) and ABT-263 bis-HCl salt was tested in a variety of lipid solvents and solvent mixtures in ambient conditions. Trademarked solvents in this study, unless identified hereinabove, are as follows (substantially equivalent products from other manufacturers can be substituted if available): • Miglyol 810™ of Sasol: caprylic/capric triglycerides; • Capmul MCM™ of Abitec: glyceryl caprylate/caprate; • Captex 300™ of Abitec: caprylic/capric triglycerides; • Labrafil M 2125 CS™ of Gattefossé: polyoxyethylene glyceryl linoleate; • Tween 20™ of Uniqema: polysorbate 20; • Labrasol™ of Gattefossé: polyoxyethylene glyceryl caprylate/caprate; • Cremophor RH40™: polyoxyethyene (40) hydrogenated castor oil. “PE-91” is Phosal 53 MCT™+ethanol, 9:1 by volume. “LOT-343” is Labrafil M 1944 CS™+oleic acid+Tween 80™, 30:40:30 by weight.
In some cases, indicated in Table 4 by an asterisk (*), solubility was initially high but precipitation occurred upon standing.

[2] = Drug solubility in ternary excipient systems; set-up: key: ✓: vehicle miscible, or drug fully dissolved in vehicle; conditions: 10% salt, 20% free base
Excerpt: (§1) Solvents evaluated included Labrafil M 1944 CS™, Imwitor 742™, oleic acid, Capmul PG-8™, Capmul PG-12™, Lauroglycol 90™ (propylene glycol monolaurate, available from Gattefossé) and Phosal 53 MCT™. Surfactants evaluated included Tween 80™, Cremophor RH40™, Gelucire 44/14™ (polyoxyethylene glyceryl laurate, available from Gattefossé) and Labrasol™.

[3] = Drug solubility in ternary excipient systems; set-up: key: ✓: vehicle miscible, or drug fully dissolved in vehicle; x: vehicle immiscible or miscible but turbid, or residual solids present (due to undissolved drug or precipitation); conditions: 10% salt, 20% free base
Excerpt: as §1

CC1(C)CCC(c2ccc(Cl)cc2)=C(CN2CCN(c3ccc(C(=O)NS(=O)(=O)c4ccc(N[C@H](CCN5CCOCC5)CSc5ccccc5)c(S(=O)(=O)C(F)(F)F)c4)cc3)CC2)C1 [ABT-263 bis-HCl]
Solubility ([1]; in Capmul PG-8, ambient conditions): <43 mg/g
Solubility ([1]; in Capmul PG-12, ambient conditions): <39 mg/g
Solubility ([1]; in Captex 300, ambient conditions): <52 mg/g
Solubility ([1]; in Labrafil M 1944 CS, ambient conditions): <45 mg/g
Solubility ([1]; in Labrafil M 2125 CS, ambient conditions): <44 mg/g
Solubility ([1]; in PE-91 (Phosal 53 MCT + ethanol 9:1 by volume), ambient conditions): 89 mg/g
Solubility ([1]; in poloxamer 124, ambient conditions): <41 mg/g
Solubility ([1]; in sesame oil, ambient conditions): <80 mg/g
ABT-263 solubility ([2]; Capmul PG-8/Labrafil M 1944 CS/Labrasol (C8LL) 40:40:20 % by weight): ✓
ABT-263 solubility ([2]; Capmul PG-12/Labrafil M 1944 CS/Tween 80 (C12LT) 30:40:30 % by weight): ✓
ABT-263 solubility ([2]; Capmul PG-12/Labrafil M 1944 CS/Tween 80 (C12LT) 35:40:25 % by weight): ✓
ABT-263 solubility ([2]; Capmul PG-12/Labrafil M 1944 CS/Tween 80 (C12LT) 40:30:30 % by weight): ✓
ABT-263 solubility ([2]; Capmul PG-12/Labrafil M 1944 CS/Tween 80 (C12LT) 45:30:25 % by weight): ✓
ABT-263 solubility ([2]; Imwitor 742/Labrafil M 1944 CS/Cremophor RH40 (ILC) 40:40:20 % by weight, listed as salt): ✓
ABT-263 solubility ([2]; Imwitor 742/Labrafil M 1944 CS/Cremophor RH40 (ILC) 50:30:20 % by weight, listed as salt): ✓
ABT-263 solubility ([2]; Imwitor 742/Labrafil M 1944 CS/Cremophor RH40 (ILC) 50:40:10 % by weight, listed as salt): ✓
ABT-263 solubility ([2]; Imwitor 742/Labrafil M 1944 CS/Cremophor RH40 (ILC) 60:30:10 % by weight, listed as salt): ✓
ABT-263 solubility ([2]; Imwitor 742/Labrafil M 1944 CS/Labrasol (ILL) 40:40:20 % by weight, listed as salt): ✓
ABT-263 solubility ([2]; Imwitor 742/Labrafil M 1944 CS/Labrasol (ILL) 50:30:20 % by weight, listed as salt): ✓
ABT-263 solubility ([2]; Imwitor 742/Labrafil M 1944 CS/Labrasol (ILL) 50:40:10 % by weight, listed as salt): ✓
ABT-263 solubility ([2]; Imwitor 742/Labrafil M 1944 CS/Labrasol (ILL) 60:30:10 % by weight, listed as salt): ✓
ABT-263 solubility ([2]; Labrafil M 1944 CS/Imwitor 742/Tween 80 (LIT) 30:40:30 % by weight, listed as salt): ✓
ABT-263 solubility ([2]; Labrafil M 1944 CS/Imwitor 742/Tween 80 (LIT) 30:45:25 % by weight, listed as salt): ✓
ABT-263 solubility ([2]; Labrafil M 1944 CS/Imwitor 742/Tween 80 (LIT) 40:30:30 % by weight, listed as salt): ✓
ABT-263 solubility ([2]; Labrafil M 1944 CS/Imwitor 742/Tween 80 (LIT) 40:35:25 % by weight, listed as salt): ✓
ABT-263 solubility ([2]; Labrafil M 1944 CS/oleic acid/Cremophor RH40 (LOC) 30:60:10 % by weight): ✓
ABT-263 solubility ([2]; Labrafil M 1944 CS/oleic acid/Cremophor RH40 (LOC) 40:50:10 % by weight): ✓
ABT-263 solubility ([2]; Labrafil M 1944 CS/oleic acid/Tween 80 (LOT) 30:40:30 % by weight): ✓
ABT-263 solubility ([2]; Labrafil M 1944 CS/oleic acid/Tween 80 (LOT) 30:45:25 % by weight): ✓
ABT-263 solubility ([2]; Labrafil M 1944 CS/oleic acid/Tween 80 (LOT) 40:30:30 % by weight): ✓
ABT-263 solubility ([2]; Labrafil M 1944 CS/oleic acid/Tween 80 (LOT) 40:35:25 % by weight): ✓
ABT-263 solubility ([2]; Lauroglycol 90/Labrafil M 1944 CS/Cremophor RH40 (LLC) 45:30:25 % by weight): ✓
ABT-263 solubility ([2]; Lauroglycol 90/Labrafil M 1944 CS/Labrasol (LLL) 40:40:20 % by weight): ✓
ABT-263 solubility ([2]; Lauroglycol 90/Labrafil M 1944 CS/Labrasol (LLL) 50:30:20 % by weight): ✓
ABT-263 solubility ([2]; Lauroglycol 90/Labrafil M 1944 CS/Labrasol (LLL) 50:40:10 % by weight, listed as salt): ✓
ABT-263 solubility ([2]; Lauroglycol 90/Labrafil M 1944 CS/Labrasol (LLL) 60:30:10 % by weight, listed as salt): ✓
ABT-263 solubility ([2]; oleic acid/Labrafil M 1944 CS/Labrasol (OLL) 40:40:20 % by weight): ✓
ABT-263 solubility ([2]; oleic acid/Labrafil M 1944 CS/Labrasol (OLL) 50:30:20 % by weight): ✓
ABT-263 solubility ([2]; oleic acid/Labrafil M 1944 CS/Labrasol (OLL) 50:40:10 % by weight): ✓
ABT-263 solubility ([2]; oleic acid/Labrafil M 1944 CS/Labrasol (OLL) 60:30:10 % by weight): ✓
ABT-263 solubility ([3]; Capmul PG-8/Labrafil M 1944 CS/Cremophor RH40 (C8LC) 40:40:20 % by weight): x
ABT-263 solubility ([3]; Capmul PG-8/Labrafil M 1944 CS/Cremophor RH40 (C8LC) 50:30:20 % by weight): x
ABT-263 solubility ([3]; Capmul PG-8/Labrafil M 1944 CS/Cremophor RH40 (C8LC) 50:40:10 % by weight): x
ABT-263 solubility ([3]; Capmul PG-8/Labrafil M 1944 CS/Cremophor RH40 (C8LC) 60:30:10 % by weight): x
ABT-263 solubility ([3]; Capmul PG-8/Labrafil M 1944 CS/Labrasol (C8LL) 50:30:20 % by weight): x
ABT-263 solubility ([3]; Capmul PG-8/Labrafil M 1944 CS/Labrasol (C8LL) 50:40:10 % by weight): x
ABT-263 solubility ([3]; Capmul PG-8/Labrafil M 1944 CS/Labrasol (C8LL) 60:30:10 % by weight): x
ABT-263 solubility ([3]; Capmul PG-8/Labrafil M 1944 CS/Tween 80 (C8LT) 30:40:30 % by weight): x
ABT-263 solubility ([3]; Capmul PG-8/Labrafil M 1944 CS/Tween 80 (C8LT) 35:40:25 % by weight): x
ABT-263 solubility ([3]; Capmul PG-8/Labrafil M 1944 CS/Tween 80 (C8LT) 40:30:30 % by weight): x
ABT-263 solubility ([3]; Capmul PG-8/Labrafil M 1944 CS/Tween 80 (C8LT) 45:30:25 % by weight): x
